According to US7629126B2, “PIM-3 kinase as a target for type 2 diabetes mellitus” (Sanofi-Aventis Deutschland GmbH, priority 2002, dated 2009):
Several values for one entry are separate records, joined by “and”; a condition that tells them apart may be missing. Equal values may be shown once.

Tests used:
PIM-3 [1] = assay: Gene expression of PIM-3 in 3T3-L1 adipocytes treated with antidiabetic drugs (PPARγ agonists), Affymetrix array; assay type: cell-based, murine
Procedure: 3T3-L1 preadipocytes were grown at 37° C. in 10% CO2 in Dulbecco's modified Eagle's medium (DMEM) containing 1 g/l glucose and 10% fetal calf serum (FCS). For differentiation into mature adipocytes, confluent preadipocytes were cultured for four days in DMEM supplemented with 4.5 g/l glucose, 10% FCS, 50 μg/ml ascorbic acid, 1 μM biotin, 17 μM pantothenic acid (=basal medium), 500 μM 3-isobutylmethylxanthine, 0.25 μM dexamethasone and 1 μg/ml human recombinant insulin. During the four day treatment the medium was changed once.
Differentiated 3T3-L1 cells were maintained in basal medium for one additional day and subsequently kept in serum-free basal medium for four hours. Then, PPARγ agonists diluted in basal medium were added to the adipocytes as described below centrations and conditions see table 5):
RNA was isolated using the TRIzol reagent (Life Technologies, Karlsruhe, Germany) and treated with DNase I by applying the DNA-free kit (Ambion, Austin, Tex., US).
Further purification of the RNA was achieved using the RNeasy mini kit (Qiagen, Hilden, Germany) and quality/quantity control was done with the 2100Bioanalyzer (Agilent, Böblingen, Germany). 10 μg of total RNA was converted into biotinylated cRNA according to the GeneChip expression analysis technical manual (Affymetrix, Santa Clara, Calif., US). Briefly, first and second strand synthesis was performed by applying the SuperScript double stranded cDNA synthesis kit (Life Technologies, Kardsruhe, Germany) and biotin labeled cRNA was produced with the BioArray RNA transcript labeling kit (Enzo Diagnostics, Framingdale, N.Y., US). 10 μg of cRNA was fragmented by heat, added to the GeneChip eukaryotic hybridization control solution (Affymetrix) and hybridized to a GeneChip MG-U74Av2 array (Affymetrix) by rotating for 16 hours at 45° C. Washing, staining and scanning of the array was carried outwith standard procedures using the hardware provided by Affymetrix. Raw data was analyzed by applying the microarray suite version 4.0.1 software (Affymetrix, see above).
The entire experiment was repeated twice to provide three biological replicates.
Data analysis including the estimation of fold changes was performed as described above. Fold change values for PIM-3 were obtained by comparing the compound treated samples against the untreated controls for each time point.

ZDF rats = assay: HbA1c as marker of long-term blood glucose in ZDF rats treated with Rosiglitazone; assay type: in vivo, rat; conditions: ZDF rats treated 14 weeks, 3 mg/kg/day, single animals R1-R5
Procedure: (§1) Zucker Diabetic Fatty (ZDF/Gmi.TM.−fa/fa) male rats as well as their lean fa+/fa− counterparts, aged 5 weeks (control 1-5, ZDF 1-10)were obtained from Genetic Models Inc. (Indianapolis, Ind.). The rats were given free access to food and water. The ZDF animals were split into 2 groups: group 1(animals ZDF 1-5) was not treated with any agent, whereas the second group was treated for 14 weeks with the antidiabetic drug Rosiglitazone (3 mg/kg/day, animals 6-10, Rosi 1-5,). For the collection of epididymal fat pads and also blood samples, in each case 5 animals were sacrificed by cervical dislocation. To monitor the success of the antidiabetic treatment, HbA1c as marker of long-term blood glucose levels were measured by standard methods after finishing of the experiment.

Pim-3 [2] = assay: Gene expression of Pim-3 in epididymal adipose tissue of ZDF rats treated with anti-diabetic drugs (PPARγ agonists); assay type: in vivo, rat; conditions: ZDF rats 20 weeks old, 3 mg/kg/day for 14 weeks, single animals Rosi 1-5 vs ZDF 1-5
Procedure: as §1
Collection of epididymal adipose tissue, RNA isolation and Affymetrix experiments were performed as described in experiment 1. Data analysis included the comparison of expression data of samples derived from the lean control animals versus the untreated ZDF rats as well as the comparison of the expression data derived from Rosiglitazone treated ZDF animals versus non-treated ZDF animals. […] Fold changes of gene expression for Pim-3 were analyzed using the Affymetlrix qualifier AF086624_S_AT.

[3] = 1 μM, 6 hours, Table 6a (replicate 1)
[4] = 1 μM, 6 hours, Table b (replicate 2)
[5] = 1 μM, 6 hours, Table c (replicate 3)
[6] = 1 μM, 24 hours, Table 6a (replicate 1)
[7] = 1 μM, 24 hours, Table b (replicate 2)
[8] = 1 μM, 24 hours, Table c (replicate 3)
[9] = 1 μM, 48 hours, Table 6a (replicate 1)
[10] = 1 μM, 48 hours, Table b (replicate 2)
[11] = 1 μM, 48 hours, Table c (replicate 3)
[12] = 5 μM, 6 hours, Table 6a (replicate 1)
[13] = 5 μM, 6 hours, Table b (replicate 2)
[14] = 5 μM, 6 hours, Table c (replicate 3)
[15] = 5 μM, 24 hours, Table 6a (replicate 1)
[16] = 5 μM, 24 hours, Table b (replicate 2)
[17] = 5 μM, 24 hours, Table c (replicate 3)
[18] = 5 μM, 48 hours, Table 6a (replicate 1)
[19] = 5 μM, 48 hours, Table b (replicate 2)
[20] = 5 μM, 48 hours, Table c (replicate 3)

Compound | Fold change (PIM-3 gene expression vs DMSO control) (PIM-3 [1]; [3]) | Fold change (PIM-3 gene expression vs DMSO control) (PIM-3 [1]; [4]) | Fold change (PIM-3 gene expression vs DMSO control) (PIM-3 [1]; [5]) | Fold change (PIM-3 gene expression vs DMSO control) (PIM-3 [1]; [6]) | Fold change (PIM-3 gene expression vs DMSO control) (PIM-3 [1]; [7]) | Fold change (PIM-3 gene expression vs DMSO control) (PIM-3 [1]; [8]) | Fold change (PIM-3 gene expression vs DMSO control) (PIM-3 [1]; [9]) | Fold change (PIM-3 gene expression vs DMSO control) (PIM-3 [1]; [10]) | Fold change (PIM-3 gene expression vs DMSO control) (PIM-3 [1]; [11]) | Fold change (PIM-3 gene expression vs DMSO control) (PIM-3 [1]; [12]) | Fold change (PIM-3 gene expression vs DMSO control) (PIM-3 [1]; [13]) | Fold change (PIM-3 gene expression vs DMSO control) (PIM-3 [1]; [14]) | Fold change (PIM-3 gene expression vs DMSO control) (PIM-3 [1]; [15]) | Fold change (PIM-3 gene expression vs DMSO control) (PIM-3 [1]; [16]) | Fold change (PIM-3 gene expression vs DMSO control) (PIM-3 [1]; [17]) | Fold change (PIM-3 gene expression vs DMSO control) (PIM-3 [1]; [18]) | Fold change (PIM-3 gene expression vs DMSO control) (PIM-3 [1]; [19]) | Fold change (PIM-3 gene expression vs DMSO control) (PIM-3 [1]; [20]) | HbA1c (%) (ZDF rats) | Fold change (Pim-3 gene expression, treated ZDF rats vs untreated ZDF rats) (Pim-3 [2])
CN(CCOc1ccc(CC2SC(=O)NC2=O)cc1)c1ccccn1 (centres unmarked) [Rosi, rosiglitazone] | 2.1 | 1.5 | 2.0 | 2.9 | 2.2 | 1.9 | 2.6 | 2.0 | 2.1 | 2.2 | 1.3 | 2.2 | 2.9 | 1.9 | 1.3 | 2.6 | 1.9 | 2.0 | 4.30% and 4.27% and 4.14% (2×) and 4.13% | 1.6 (2×) and 1.3 and 1.5 and 1.4
Cc1c(C)c2c(c(C)c1O)CCC(C)(COc1ccc(CC3SC(=O)NC3=O)cc1)O2 (centres unmarked) [Tro, troglitazone] | 1.7 | 1.7 | 1.8 | 1.8 | 1.6 | 1.6 | 1.8 | 1.6 | 1.6 | 2.1 | 1.7 | 2.3 | 2.7 | 1.9 | 2.0 | 2.4 | 1.9 | 2.3 |  | 
